Measurements taken from patent US12291529B2, “Heterocyclic GLP-1 agonists” (Gasherbrum Bio, Inc., priority 2023, dated 2025).
Values after ≈ are worked out from the molar mass of the structure shown.

What was measured:
Caco-2 cell monolayers = experiment: Caco-2 permeability / efflux study; format: in vitro ADME; conditions: 10 μM, 2 hours; for Caco-2 Perm: 37° C., pH 7.4, 0.5% BSA
Experimental: (§1) Incubations with Caco-2 cell monolayers were performed in duplicate in a 96-well Transwell plate. Transport buffer solution (HBSS, 10 mM HEPES, pH 7.4, with 0.5% BSA) containing test article (10 μM), and either the control compounds metoprolol (10 μM), cimetidine (10 μM) and erythromycin (10 μM), was added to appropriate donor wells of the apical or basolateral plate. The transport buffer with DMSO was added to appropriate wells of receiver wells. Following incubation at 37° C. for 2 hours, the cell plates were removed and 50 μL samples from both apical and basolateral sides were transferred into new 96-well plates. Subsequently, 200 μL of acetonitrile containing internal standard was added to all samples to precipitate protein prior to analysis by UPLC-MS/MS. Lucifer yellow was used as a marker to confirm the integrity of the cell monolayers after 2 hours incubation.

[1] = Caco-2 permeability / efflux study; format: in vitro ADME; conditions: human; for efflux ratio at 2 h, 10 μM: Caco-2, pH 7.4, Caco-2 efflux ratio; for Papp at 2 h, 10 μM: Caco-2, pH 7.4, 10 μM, 37° C., pH 7.4, 0.5% BSA, read-out: Caco-2 Perm
Experimental: as §1

FaSSIF solubility = format: physicochemical; conditions: FaSSIF buffer; for solubility at 4 h: 25 °C, fassif, thermodynamic from solid
Experimental: Stock solution of test article and control compound (chlorpromazine, astemizole, and phenytoin) were prepared in DMSO at 10 mM. 50 μL each of stock solutions were dried down, followed by reconstitution to 1 mM with FaSSIF buffer in the well. The incubation plate was shaked at 25° C., 1,100 rpm for 4 hours. And then, the samples were filtered by using the vacuum manifold. 10 μL aliquots from each well was transferred to a new 96-well plate and adjust the volume to 80 μL with blank buffer. Using a mixture of H2O and acetonitrile containing internal standard (1:1) to dilute the sample 100-fold, 500-fold and 2,500-fold. The samples are evaluated by LC/MS/MS analysis. All compounds were tested in singlet.

GLP-1 Receptor = GLP-1 Receptor (Homo sapiens, UniProt P43220); experiment: GLP-1R agonist cAMP stimulation assay (HEK293/GLP1R/CRE-LUC cells, Cisbio cAMP dynamic 2 kit); format: cell-based
Summary of the method: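 cAMP was measured by HTRF (d2/cryptate, 1 h RT, 665 and 615 nm). Beforehand, compounds in half-log series were incubated 30 min at 37 °C with GLP-1R/CRE-Luc HEK293 cells (1000 per well) in IBMX (0.5 mM)-containing DPBS/BSA. Activity scaled between vehicle and maximal control.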

[2] = Rat PO PK study, Method B; format: in vivo, male Sprague Dawley (SD) rats; conditions: for rat PK exposure compared with C-5 and C-6: 5 to 100 mg/kg; for rat PK dose proportionality of exposure: free form, same formulation; for AUC / Cmax: male, Sprague Dawley, plasma
Experimental: Pharmacokinetics (PK) study was conducted on male Sprague Dawley (SD) rats by oral gavage (PO). Rats in PO route (n=3) were free access to food and water. […] On the day of experiment, test article was administered via oral gavage (commonly at 10, 30, or 100 mg/kg, with dose volume as 10 mL/kg). Blood samples were collected via serial bleeding at ˜8 time points from 0.25 to 24 hrs post dose. Approximate 150 μL of blood/time point was collected into KzEDTA tube via tail vein or jugular vein. Blood samples were put on wet ice and centrifuged to obtain plasma samples and plasma samples were submitted to LC-MS/MS for sample analysis. Pharmiacokinetics parameters, including Cmax, and area under the curve (AUC), etc. were calculated by non-compartmental model using WinNonlin.

[3] = Rat IV/PO PK study, Method A; format: in vivo, male Sprague Dawley (SD) rats; conditions: for AUC (ng · h/mL)_free form/dose / AUC / Cmax: PO; for AUC (ng · h/mL)_free form/dose: 5 mpk, free form; for half-life / bioavailability / AUC / Cmax: male, Sprague Dawley, plasma; for half-life: 1 mg/kg, elimination half life (IV); for half-life / bioavailability: Method A; for bioavailability: PO vs IV, read-out: Bioavailablility (% F); for AUC / Cmax: 5 mg/kg, *obtained under method 3A
Experimental: Pharmacokinetics (PK) study was conducted on male Sprague Dawley (SD) rats by two delivery routes intravenous (IV) and/or oral gavage (PO). Rats in IV route (n=3) were free access to food and water. Rats in PO route (n=3) were fasted overnight and fed at 4 hrs post dosing. Test article was formulated in solution (10% solutol HS 15 in saline) for IV route and solution or suspension (10% solutol HS 15 in saline/water) for PO route, respectively. On the day of experiment, test article was administered via vein (e.g. foot dorsal vein) injection (commonly at 1 mg/kg and 5 mL/kg) for IV route or via oral gavage (commonly at 2 or 5 mg/kg and 5 mL/kg) for PO route, respectively. Blood samples were collected via serial bleeding at ˜8 time points from 0.083 to 24 hrs post dose. Approximate 150 μL of blood/time point was collected into K2EDTA tube via tail vein or jugular vein. Blood samples were put on wet ice and centrifuged to obtain plasma samples and plasma samples were submitted to LC-MS/MS for sample analysis. Pharmacokinetics parameters, including elimination half life (t1/2) (IV), area under the curve (AUC) and oral bioavailability (F %), etc. were calculated by non-compartmental model using WinNonlin.

[4] = Table 3, HEK293/GLP1R/CRE-LUC cells, 30 min
[5] = 30 mg/kg, 20% solutol HS 15 in water
[6] = 100 mg/kg, 20% solutol HS 15 in water

Chain of GLP-1 Receptor (P43220 24-463, species assumed): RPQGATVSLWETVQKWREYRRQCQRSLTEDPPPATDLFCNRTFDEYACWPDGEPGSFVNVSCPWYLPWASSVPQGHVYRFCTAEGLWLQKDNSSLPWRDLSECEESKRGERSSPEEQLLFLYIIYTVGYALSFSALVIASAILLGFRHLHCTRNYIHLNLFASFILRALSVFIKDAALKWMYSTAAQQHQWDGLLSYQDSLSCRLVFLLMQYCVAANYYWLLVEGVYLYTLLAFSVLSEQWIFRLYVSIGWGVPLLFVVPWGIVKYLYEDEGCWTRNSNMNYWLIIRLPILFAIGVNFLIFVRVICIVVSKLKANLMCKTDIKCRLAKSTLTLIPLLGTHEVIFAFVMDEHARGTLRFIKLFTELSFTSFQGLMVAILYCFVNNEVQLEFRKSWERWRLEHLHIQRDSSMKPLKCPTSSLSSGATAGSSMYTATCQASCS

SMILES | efflux ratio at 2 h, 10 μM [1] | solubility at 4 h (FaSSIF solubility) [µM] | EC50 (GLP-1 Receptor; [4]) [nM] | EC50 (GLP-1 Receptor; Table 4) [nM] | rat PK exposure compared with C-5 and C-6 [2] | rat PK dose proportionality of exposure [2] | Papp at 2 h, 10 μM [1] [×10⁻⁶ cm/s] | AUC (ng · h/mL)_free form/dose [3] | half-life [3] [h] | bioavailability [3] [%] | AUC [3] [ng·h/mL] | Cmax [3] [ng/mL] | AUC ([2]; 30 mg/kg, 10% solutol HS 15) [ng·h/mL] | Cmax ([2]; 30 mg/kg, 10% solutol HS 15) [ng/mL] | AUC ([2]; 100 mg/kg, 10% solutol HS 15) [ng·h/mL] | Cmax ([2]; 100 mg/kg, 10% solutol HS 15) [ng/mL] | other results
Cc1cc(-n2nc3c(c2-n2ccn(-c4ccc(S5(=O)=NCCC5)cc4)c2=O)[C@H](C)N(C(=O)c2cc4cc(C5CCOCC5)ccc4n2[C@@]2(c4noc(=O)[nH]4)C[C@@H]2C)CC3)cc(C)c1F (single isomer, unassigned) [Compound 142] | > 156 | 8.07 (≈ 7.15 µg/mL) | 0.045 | 0.063 | – | – | – | – | – | – | – | – | – | – | – | – | Caco-2 Perm (Caco-2 cell monolayers): < 0.05 ×10⁻⁶ cm/s
Cc1cc(-n2nc3c(c2-n2ccn(-c4ccc(S5(=O)=NCCC5)cc4)c2=O)[C@H](C)N(C(=O)c2cc4cc(C5CCOCC5)ccc4n2[C@@]2(c4noc(=O)[nH]4)C[C@@H]2C)CC3)cc(C)c1F (single isomer, unassigned) [Compound 143] | – | – | 0.019 | 0.019 | – | – | – | – | – | – | – | – | – | – | – | – | Caco-2 Perm (Caco-2 cell monolayers): 0.12 ×10⁻⁶ cm/s; Efflux (Caco-2 cell monolayers; Caco-2 efflux ratio): 99.3; Solubility (FaSSIF, μM) (FaSSIF solubility; 25° C., 4 hours): 4.98 µM (≈ 4.41 µg/mL)
CCS(=O)(=NC)c1ccc(-n2ccn(-c3c4c(nn3-c3cc(C)c(F)c(C)c3)CCN(C(=O)c3cc5cc([C@H]6CCOC(C)(C)C6)ccc5n3[C@@]3(c5noc(=O)[nH]5)C[C@@H]3C)[C@H]4C)c2=O)c(F)c1 (single isomer, unassigned) [Compound 164] | 5.5 | 8.9 (≈ 8.31 µg/mL) | 0.024 | 0.024 | higher exposure than C-5 and C-6 | good rat PK dose proportionality from 5 to 100 mg/kg | 0.62 | 6,094/5 mpk ng · h/mL | 2.4 | 29.4 | 9540 | 1880 | – | – | – | – | AUC [2, 5]: 66200 ng·h/mL; Cmax [2, 5]: 5400 ng/mL; AUC [2, 6]: 173000 ng·h/mL; Cmax [2, 6]: 11200 ng/mL
CN=S(=O)(c1ccc(-n2ccn(-c3c4c(nn3-c3cc(C)c(F)c(C)c3)CCN(C(=O)c3cc5cc([C@H]6CCOC(C)(C)C6)ccc5n3[C@@]3(c5noc(=O)[nH]5)C[C@@H]3C)[C@H]4C)c2=O)c(F)c1)C1CC1 (single isomer, unassigned) [Compound 180] | 5.4 | 30 (≈ 28.4 µg/mL) | 0.034 | 0.03 | higher exposure than C-5 and C-6 | good rat PK dose proportionality from 5 to 100 mg/kg | 0.61 | 4,954/5 mpk ng · h/mL | 3 | 28 | 6100 | 1790 | 97000 | 8340 | 167000 | 13300 | –
CN=S(=O)(c1ccc(-n2ccn(-c3c4c(nn3-c3cc(C)c(F)c(C)c3)CCN(C(=O)c3cc5cc([C@H]6CCOC(C)(C)C6)ccc5n3[C@@]3(c5noc(=O)[nH]5)C[C@@H]3C)[C@H]4C)c2=O)c(F)c1C)C1CC1 (single isomer, unassigned) [Compound 195] | 12 | 7.2 (≈ 6.91 µg/mL) | 0.018 | 0.018 | higher exposure than C-5 and C-6 | good rat PK dose proportionality from 5 to 100 mg/kg | 0.22 | 9,545/5 mpk ng · h/mL | 4.3 | 14 | 5000 | 774 | 51100 | 3910 | 102000 | 7690 | –
CN=S(=O)(c1ccc(-n2ccn(-c3c4c(nn3-c3cc(C)c(F)c(C)c3)CCN(C(=O)c3cc5cc([C@H]6CCOC(C)(C)C6)ccc5n3[C@@]3(c5noc(=O)[nH]5)C[C@@H]3C)[C@H]4C)c2=O)c(F)c1NC)C1CC1 (single isomer, unassigned) [Compound 238] | 9.8 | 26 (≈ 25.4 µg/mL) | 0.11 | 0.11 | higher exposure than C-5 and C-6 | good rat PK dose proportionality from 5 to 100 mg/kg | 0.19 | 4,997/5 mpk ng · h/mL | 4.78 | 25.5 | 7430 | 1060 | – | – | – | – | AUC [2, 5]: 67500 ng·h/mL; Cmax [2, 5]: 4710 ng/mL; AUC [2, 6]: 124000 ng·h/mL; Cmax [2, 6]: 8680 ng/mL
Cc1cc(-n2nc3c(c2-n2ccn(-c4ccc5c(cnn5C)c4F)c2=O)[C@H](C)N(C(=O)c2cc4cc([C@H]5CCOC(C)(C)C5)ccn4c2C2(c4noc(=O)[nH]4)CC2)CC3)cc(C2CC2)c1F [Compound C-6, reference compound] | 26 | 4.5 (≈ 4.03 µg/mL) | – | 0.0675 | – | – | 0.16 | 4,276/5 mpk ng · h/mL | 3.1 | 47 | 4280 | 744 | 58800 | 7540 | 86000 | 7480 | –
